Experimental data: patent US12528761B2, “Thyromimetics” (Autobahn Therapeutics, Inc., priority 2020, dated 2026)

Molecular target: T1, recombinant human FAAH (rhFAAH) (Homo sapiens, UniProt O00519)
T1 construct: purchased Cayman Chemical (Ann Arbor, MI, USA)
T1 sequence (O00519 1-579): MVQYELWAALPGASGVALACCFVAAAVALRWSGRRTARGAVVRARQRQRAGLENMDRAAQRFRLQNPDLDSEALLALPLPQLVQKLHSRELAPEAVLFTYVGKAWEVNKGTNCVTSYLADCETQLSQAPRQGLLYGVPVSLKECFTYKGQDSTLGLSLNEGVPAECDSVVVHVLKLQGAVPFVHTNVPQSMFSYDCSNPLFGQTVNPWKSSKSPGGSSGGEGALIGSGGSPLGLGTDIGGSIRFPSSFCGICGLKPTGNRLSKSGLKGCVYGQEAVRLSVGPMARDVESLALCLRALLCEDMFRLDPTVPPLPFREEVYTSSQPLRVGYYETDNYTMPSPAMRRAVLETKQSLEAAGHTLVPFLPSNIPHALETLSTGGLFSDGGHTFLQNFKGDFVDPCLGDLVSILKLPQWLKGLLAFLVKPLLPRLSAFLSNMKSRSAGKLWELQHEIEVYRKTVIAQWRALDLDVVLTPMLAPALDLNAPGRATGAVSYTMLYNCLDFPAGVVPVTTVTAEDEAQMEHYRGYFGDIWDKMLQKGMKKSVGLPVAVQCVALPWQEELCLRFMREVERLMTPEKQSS
Experiment: FAAH substrate evaluation (formation of acid metabolite, LC-MS/MS)
Format: biochemical
Design: key: A: ke is equal to or less than 1.0; B: ke is greater than 1.0 and less than or equal to 2.5; C: ke is greater than 2.5; NC: no conversion
Settings: 0.5 ng/μL rhFAAH, 1 μM test compound, pH 8.0, room temperature, 0-60 minutes
Description: Purified recombinant human FAAH (rhFAAH) was purchased from Cayman Chemical (Ann Arbor, MI, USA). The total volume for each incubation was 400 μL containing a final 0.5 ng/μL rhFAAH, 1 μM test compound, 1.25% ethanol or 1 μM PF-3845 (FAAH inhibitor), and 0.1% bovine serum albumin in Tris-EDTA buffer at pH 8.0). The positive control was LL-341001. The incubation was conducted at the room temperature. At 0, 5, 15, 30 and 60 minutes, an aliquot of 30 μL reaction mixtures was removed and mixed with 300 μL acetonitrile containing 5 ng/mL terfenadine and 10 ng/mL tolbutamide as internal standards to quench the reaction. The resulting mixture was centrifuged at 4000 rpm, 4° C. for 15 minutes, and 100 μL supernatant was ready for LC-MS/MS analysis to measure the formation of acid metabolite.
Acquity Ultra Performance LC system from Waters was used for sample analysis. The chromatography was performed on a reverse phase Kinetex 2.6 μm C18 column, 2.1×30 mm, 100 Å. The mobile phase A comprised of 0.1% formic acid in water and mobile phase B comprised of 0.1% formic acid in acetonitrile with a 2-min run time at the flow rate of 0.8 mL/min for the acid metabolite from positive control or a 1.5 min run time at the flow rate of 0.9 mL/min for the acid metabolite of test compounds. The mass spectrometer (API-5500 and API Q Trap 4000 Applied Biosystems/MDS SCIEX Instruments, Framingham, MA, USA) was operated under ESI positive or negative ion MRM mode.
The formation of acid metabolite was monitored and quantified using one calibration point of 1 μM. The observed rate constant (ke) for the acid metabolite formation was calculated by plotting the metabolite concentration versus time of incubation with the slope being ke and is shown in Table 4.

Structure (SMILES)	ke, observed rate constant for the acid metabolite formation
CNC(=O)/C(C)=C/c1cc(Cl)c(Cc2ccc(O)c(C(C)C)c2F)c(Cl)c1 [Compound 146, (E)-3-(3,5-dichloro-4-(2-fluoro-4-hydroxy-3-isopropylbenzyl)phenyl)-N,2-dimethylacrylamide]	A (ke is equal to or less than 1.0)
CNC(=O)Cc1cc(Cl)c(Cc2ccc(O)c(C(C)C)c2)c(Cl)c1 [Compound 7, 2-(3,5-dichloro-4-(4-hydroxy-3-isopropylbenzyl)phenyl)-N-methylacetamide]	NC
CNC(=O)CCc1cc(Cl)c(Cc2ccc(O)c(C(C)C)c2)c(Cl)c1F [Compound 66, 3-(3,5-dichloro-2-fluoro-4-(4-hydroxy-3-isopropylbenzyl)phenyl)-N-methylpropanamide]	A (ke is equal to or less than 1.0)
Cc1cc(SCC(N)=O)cc(Cl)c1Cc1ccc(O)c(C(C)C)c1F [Compound 234, 2-((3-chloro-4-(2-fluoro-4-hydroxy-3-isopropylbenzyl)-5-methylphenyl)thio)acetamide]	C (ke is greater than 2.5)
CC(C)c1c(O)ccc(Cc2c(Cl)cc(NCC(=O)N(C)C)c(F)c2Cl)c1F [Compound 166, 2-((3,5-dichloro-2-fluoro-4-(2-fluoro-4-hydroxy-3-isopropylbenzyl)phenyl)amino)-N,N-dimethylacetamide]	NC
CNC(=O)CNc1cc(C)c(Cc2ccc(O)c(C(C)C)c2)c(Cl)c1F [Compound 135, 2-((3-chloro-2-fluoro-4-(4-hydroxy-3-isopropylbenzyl)-5-methylphenyl)amino)-N-methylacetamide]	A (ke is equal to or less than 1.0)
CNC(=O)CSc1cc(C)c(Cc2ccc(O)c(C(C)C)c2)c(Cl)c1 [Compound 242, 2-((3-chloro-4-(4-hydroxy-3-isopropylbenzyl)-5-methylphenyl)thio)-N-methylacetamide]	B (ke is greater than 1.0 and less than or equal to 2.5)
CC(C)c1cc(Cc2c(Cl)cc(SCC(=O)Nc3cccnc3)cc2Cl)ccc1O [Compound 170, 2-((3,5-dichloro-4-(4-hydroxy-3-isopropylbenzyl)phenyl)thio)-N-(pyridin-3-yl)acetamide]	C (ke is greater than 2.5)
CNC(=O)CN(C)c1cc(Cl)c(Cc2ccc(O)c(C(C)C)c2)c(Cl)c1 [Compound 149, 2-((3,5-dichloro-4-(4-hydroxy-3-isopropylbenzyl)phenyl)(methyl)amino)-N-methylacetamide]	NC
CNC(=O)/C(C)=C/c1cc(C)c(Cc2ccc(O)c(C(C)C)c2F)c(Cl)c1 [Compound 238, (E)-3-(3-chloro-4-(2-fluoro-4-hydroxy-3-isopropylbenzyl)-5-methylphenyl)-N,2-dimethylacrylamide]	B (ke is greater than 1.0 and less than or equal to 2.5)
CC(C)c1cc(Cc2c(Cl)cc(CSCC(=O)N(C)C)cc2Cl)ccc1O [Compound 191, 2-((3,5-dichloro-4-(4-hydroxy-3-isopropylbenzyl)benzyl)thio)-N,N-dimethylacetamide]	NC
CNC(=O)CSc1cc(Cl)c(Cc2ccc(O)c(C(C)C)c2)c(Cl)c1F [Compound 190, 2-((3,5-dichloro-2-fluoro-4-(4-hydroxy-3-isopropylbenzyl)phenyl)thio)-N-methylacetamide]	B (ke is greater than 1.0 and less than or equal to 2.5)
COc1ccc(NC(=O)CNc2cc(Cl)c(Cc3ccc(O)c(C(C)C)c3F)c(Cl)c2F)cn1 [Compound 158, 2-((3,5-dichloro-2-fluoro-4-(2-fluoro-4-hydroxy-3-isopropylbenzyl)phenyl)amino)-N-(6-methoxypyridin-3-yl)acetamide]	B (ke is greater than 1.0 and less than or equal to 2.5)
Cc1cc(CSCC(=O)NC2CCCCC2)cc(Cl)c1Cc1ccc(O)c(C(C)C)c1 [Compound 131, 2-((3-chloro-4-(4-hydroxy-3-isopropylbenzyl)-5-methylbenzyl)thio)-N-cyclohexylacetamide]	NC
Cc1cc(CSCC(=O)NC2CC2)cc(Cl)c1Cc1ccc(O)c(C(C)C)c1 [Compound 229, 2-((3-chloro-4-(4-hydroxy-3-isopropylbenzyl)-5-methylbenzyl)thio)-N-cyclopropylacetamide]	C (ke is greater than 2.5)
CNC(=O)CSCc1cc(Cl)c(Cc2ccc(O)c(C(C)C)c2)c(Cl)c1 [Compound 193, 2-((3,5-dichloro-4-(4-hydroxy-3-isopropylbenzyl)benzyl)thio)-N-methylacetamide]	NC
CNC(=O)CCc1cc(Cl)c(Cc2ccc(O)c(C(C)C)c2F)c(Cl)c1 [Compound 41, 3-(3,5-dichloro-4-(2-fluoro-4-hydroxy-3-isopropylbenzyl)phenyl)-N-methylpropanamide]	A (ke is equal to or less than 1.0)
COc1ccc(NC(=O)CSc2cc(Cl)c(Cc3ccc(O)c(C(C)C)c3)c(Cl)c2)nn1 [Compound 169, 2-((3,5-dichloro-4-(4-hydroxy-3-isopropylbenzyl)phenyl)thio)-N-(6-methoxypyridazin-3-yl)acetamide]	A (ke is equal to or less than 1.0)
CC(C)c1c(O)ccc(Cc2c(Cl)cc(NCC(=O)Nc3cccnc3)c(F)c2Cl)c1F [Compound 160, 2-((3,5-dichloro-2-fluoro-4-(2-fluoro-4-hydroxy-3-isopropylbenzyl)phenyl)amino)-N-(pyridin-3-yl)acetamide]	B (ke is greater than 1.0 and less than or equal to 2.5)
CC(C)c1c(O)ccc(Cc2c(Cl)cc(NCC(=O)NCCCF)c(F)c2Cl)c1F [Compound 155, 2-((3,5-dichloro-2-fluoro-4-(2-fluoro-4-hydroxy-3-isopropylbenzyl)phenyl)amino)-N-(3-fluoropropyl)acetamide]	A (ke is equal to or less than 1.0)
CNC(=O)Cc1cc(Cl)c(Cc2ccc(O)c(C(C)C)c2F)c(Cl)c1 [Compound 33, 2-(3,5-dichloro-4-(2-fluoro-4-hydroxy-3-isopropylbenzyl)phenyl)-N-methylacetamide]	NC
Cc1cc(CSCC(=O)N2CCC2)cc(Cl)c1Cc1ccc(O)c(C(C)C)c1 [Compound 228, 1-(azetidin-1-yl)-2-((3-chloro-4-(4-hydroxy-3-isopropylbenzyl)-5-methylbenzyl)thio)ethan-1-one]	A (ke is equal to or less than 1.0)
CNC(=O)CNc1cc(C)c(Cc2ccc(O)c(C(C)C)c2F)c(Cl)c1 [Compound 235, 2-((3-chloro-4-(2-fluoro-4-hydroxy-3-isopropylbenzyl)-5-methylphenyl)amino)-N-methylacetamide]	A (ke is equal to or less than 1.0)
CC(C)c1cc(Cc2c(Cl)cc(SCC(=O)Nc3ccnnc3)cc2Cl)ccc1O [Compound 173, 2-((3,5-dichloro-4-(4-hydroxy-3-isopropylbenzyl)phenyl)thio)-N-(pyridazin-4-yl)acetamide]	C (ke is greater than 2.5)
CNC(=O)CCc1cc(Cl)c(Cc2ccc(O)c(C(C)C)c2)c(Cl)c1 [Compound 12, 3-(3,5-dichloro-4-(4-hydroxy-3-isopropylbenzyl)phenyl)-N-methylpropanamide]	A (ke is equal to or less than 1.0)
CC(C)c1c(O)ccc(Cc2c(Cl)cc(NCC(=O)N[C@@H]3C[C@@H]3F)c(F)c2Cl)c1F [Compound 156, 2-((3,5-dichloro-2-fluoro-4-(2-fluoro-4-hydroxy-3-isopropylbenzyl)phenyl)amino)-N-((1R,2S)-2-fluorocyclopropyl)acetamide]	A (ke is equal to or less than 1.0)
